# Assay results published in US20230086007A1, “USE OF DENATONIUM BENZOATE AS A SEED TREATMENT FOR CROPS AS BIRD AND/OR INSECT REPELLENT” (KWS SAAT SE & Co. KGaA, priority 2020, published 2023).
# Test system: corn seeds
# Experiment: Phytotoxicity: cold test germination rate (CT) of treated corn seeds
# Details: for ΔCT: vs no Bitrex
# Description: In order to evaluate the phytotoxicity of different corn seed treatments, safety tests were conducted. Germination rates of corn seeds treated with various concentrations of denatonium benzoate (Bitrex®) [in g per unit, where 1 unit is 50.000 seeds] were counted after five days at 25° C. Cold test germination rates (CT) were counted after 7 days at 10° C. and 5 days at 25° C. The treatments were compared to untreated seeds.
# KF=germination rates counted after 5 days at 25° C. and CT=cold test germination rates counted after 7 days at 10° C. and 5 days at 25° C.
# [1] = ø of varieties and chemicals, Bitrex 0.2 g/u
# [2] = ø of varieties and chemicals, Bitrex 0.5 g/u
# [3] = ø of varieties and chemicals, Bitrex 1.0 g/u
# [4] = ø of varieties and chemicals, Bitrex 2.0 g/u
# [5] = ø of varieties and chemicals, Bitrex 5.0 g/u
# [6] = ø of varieties, chemical no, Bitrex 0.2 g/u
# [7] = ø of varieties, chemical no, Bitrex 0.5 g/u
# [8] = ø of varieties, chemical no, Bitrex 1.0 g/u
# [9] = ø of varieties, chemical no, Bitrex 2.0 g/u
# [10] = ø of varieties, chemical no, Bitrex 5.0 g/u
# [11] = ø of varieties, with MaximXL, Bitrex 0.2 g/u
# [12] = ø of varieties, with MaximXL, Bitrex 0.5 g/u
# [13] = ø of varieties, with MaximXL, Bitrex 1.0 g/u
# [14] = ø of varieties, with MaximXL, Bitrex 2.0 g/u
# [15] = ø of varieties, with MaximXL, Bitrex 5.0 g/u
# [16] = ø of varieties, with RedigoM, Bitrex 0.2 g/u
# [17] = ø of varieties, with RedigoM, Bitrex 0.5 g/u
# [18] = ø of varieties, with RedigoM, Bitrex 1.0 g/u
# [19] = ø of varieties, with RedigoM, Bitrex 2.0 g/u
# [20] = ø of varieties, with RedigoM, Bitrex 5.0 g/u
structure (smiles),measurement,setting,value
"CC[N+](CC)(CC(=O)Nc1c(C)cccc1C)Cc1ccccc1.O=C([O-])c1ccccc1 [Bitrex, N-Benzyl-2-(2,6-dimethylanilino)-N, N-diethyl-2-oxoethan-1-aminium benzoate]",ΔCT,"corn KXB6432, chemical no, Bitrex 2.0 g/u",−2.0%
same,ΔCT,"corn KXB6432, chemical no, Bitrex 5.0 g/u",−2.0%
same,ΔCT,"corn KXB6432, with MaximXL, Bitrex 0.2 g/u",1.0%
same,ΔCT,"corn KXB6432, with MaximXL, Bitrex 0.5 g/u",0.5%
same,ΔCT,"corn KXB6432, with MaximXL, Bitrex 1.0 g/u",−1.0%
same,ΔCT,"corn KXB6432, with MaximXL, Bitrex 2.0 g/u",−2.5%
same,ΔCT,"corn KXB6432, with MaximXL, Bitrex 5.0 g/u",0.0%
same,ΔCT,"corn KXB6432, with RedigoM, Bitrex 0.2 g/u",−0.5%
same,ΔCT,"corn KXB6432, with RedigoM, Bitrex 0.5 g/u",−1.0%
same,ΔCT,"corn KXB6432, with RedigoM, Bitrex 1.0 g/u",2.0%
same,ΔCT,"corn KXB6432, with RedigoM, Bitrex 2.0 g/u",1.0%
same,ΔCT,"corn KXB6432, with RedigoM, Bitrex 5.0 g/u",−1.0%
same,ΔCT,[1],1.8%
same,ΔCT,[2],1.3%
same,ΔCT,[3],2.4%
same,ΔCT,[4],0.3%
same,ΔCT,[5],1.1%
same,ΔCT,[6],5.8%
same,ΔCT,[7],4.3%
same,ΔCT,[8],7.2%
same,ΔCT,[9],2.8%
same,ΔCT,[10],4.5%
same,ΔCT,[11],−0.5%
same,ΔCT,[12],−0.7%
same,ΔCT,[13],−2.0%
same,ΔCT,[14],−1.8%
same,ΔCT,[15],−0.5%
same,ΔCT,[16],0.0%
same,ΔCT,[17],0.5%
same,ΔCT,[18],2.0%
same,ΔCT,[19],−0.2%
same,ΔCT,[20],−0.7%
same,"CT cold test germination rate, 7 days at 10° C. and 5 days at 25° C.",[1],97.0%
same,"CT cold test germination rate, 7 days at 10° C. and 5 days at 25° C.",[2],96.6%
same,"CT cold test germination rate, 7 days at 10° C. and 5 days at 25° C.",[3],97.7%
same,"CT cold test germination rate, 7 days at 10° C. and 5 days at 25° C.",[4],95.5%
same,"CT cold test germination rate, 7 days at 10° C. and 5 days at 25° C.",[5],96.3%
same,"CT cold test germination rate, 7 days at 10° C. and 5 days at 25° C.",[6],94.8%
same,"CT cold test germination rate, 7 days at 10° C. and 5 days at 25° C.",[7],93.3%
same,"CT cold test germination rate, 7 days at 10° C. and 5 days at 25° C.",[8],96.3%
same,"CT cold test germination rate, 7 days at 10° C. and 5 days at 25° C.",[9],91.8%
same,"CT cold test germination rate, 7 days at 10° C. and 5 days at 25° C.",[10],93.5%
same,"CT cold test germination rate, 7 days at 10° C. and 5 days at 25° C.",[11],99.0%
same,"CT cold test germination rate, 7 days at 10° C. and 5 days at 25° C.",[12],98.8%
same,"CT cold test germination rate, 7 days at 10° C. and 5 days at 25° C.",[13],97.5%
same,"CT cold test germination rate, 7 days at 10° C. and 5 days at 25° C.",[14],97.8%
same,"CT cold test germination rate, 7 days at 10° C. and 5 days at 25° C.",[15],99.0%
same,"CT cold test germination rate, 7 days at 10° C. and 5 days at 25° C.",[16],97.3%
same,"CT cold test germination rate, 7 days at 10° C. and 5 days at 25° C.",[17],97.8%
same,"CT cold test germination rate, 7 days at 10° C. and 5 days at 25° C.",[18],99.3%
same,"CT cold test germination rate, 7 days at 10° C. and 5 days at 25° C.",[19],97.0%
same,"CT cold test germination rate, 7 days at 10° C. and 5 days at 25° C.",[20],96.5%
